“Also recorded” adds a separate entry of the source. Marks after values point to notes of the source that are not given here.
Key:
PMA/I-treated human PBMC = assay: Inflammation-associated T cell surface antigens (CD25, CD54) in PMA/I-treated human PBMC, two-color flow cytometry; format: cell-based
Experimental: In vitro studies indicate that astaxanthin suppresses expression of inflammation-associated T cell surface antigens in PMA/I-treated human PBMC. […]
Analysis of blood for representation by selected lymphocyte subpopulations was conducted by two-color flow cytometry.

[1] = system: ovalbumin(OA)-induced asthma in guinea pigs; assay: Ovalbumin-induced asthma in guinea pigs: inflammatory cells in BAL fluid; format: in vivo, guinea pig; settings: for Eosinophils / Macrophages / Neutrophils: BAL fluid 24 hours after OV challenge
Experimental: The effect combinations of vitamin C, astaxanthin, and ginkolide on asthma-associated disease parameters ovalbumin(OA)-induced asthma in guinea pigs was evaluated. Twenty-four hours following OA challenge, animals are sacrificed and numbers of inflammatory cells (eosinophils, neutrophils, macrophages) are measured in bronchoalveolar lavage (BAL) fluid; and cAMP and cGMP concentrations in the lung tissue. The experiments were carried out as follows. Male Hartley guinea pigs (250-350 g) were sensitized by intramuscular injections of 0.35 ml of a 5% (W/V) ovalbumin (OA)/saline solution into each thigh on days 1 and 4. Guinea pigs were ready for asthmatic challenge after 25 days of ovalbumin injection. Asthmatic challenge was carried out with ovalbumin aerosol, and bronchoalveolar lavage (BAL) was done 24 hours later. The numbers of eosinophils, neutrophils, and macrophages in the BAL fluid were counted. Twenty-four hours after the aerosol OA challenge, guinea pigs were killed by cervical dislocation and exsanguinated by severing the axillary arteries. Lungs were lavaged with 50 ml of DulBecco's phosphate-buffered saline (aliquots of 10 ml), which were aspirated after gentle chest massage. BAL fluid was centrifuged at 2200 rpm (1100×g) for 10 min, supernatant was aspirated, and pellets were resuspended in 5 ml 0.25% NaCl to lyse residual erythrocytes. This dispersion was centrifuged at 2200 rpm (1100×g) for 10 min, supernatant was aspirated, and pellets were resuspended 5 ml 0.9% NaCl. Total cell counts were done by hemocytometry using trypan blue stain. Slides were prepared on a Shandon Cytospin 2 (Pittsburgh, Pa.) at 300 rpm for 5 min, fixed and stained. Differential cell counts were done using standard morphologic criteria to classify cells as eosinophils, neutrophils, or macrophages, and the results were expressed in cell numbers. The dose-responsive effect of AX, EGb761, and vitamin C administered independently for suppression of asthma-associated parameters in allergen-induced, asthmatic guinea pigs was determined. Ibuprophen (IB) was used as the positive control. Concentration of inflammatory cells in bronchoalveolar lavage (BAL) fluid and levels of cAMP and cGMP in lung tissue were measured in guinea pigs 24 hours following challenge with OV. Data is reported as mean±SD of measurements taken in 6 animals per dosage cohort. *p<0.05 compared to corresponding values of OV antigen-challenged, drug-free control group. The dose-responsive effect of AX, EGb761, and vitamin C administered in combination for suppression of asthma-associated parameters in allergen-induced, asthmatic guinea pigs was determined. The combination of these three components was given each day for each guinea pig as a “cocktail”. Concentration of inflammatory cells in bronchoalveolar lavage (BAL) fluid and levels of cAMP and cGMP in lung tissue were measured in guinea pigs 24 hours following challenge with OV. Data is reported as mean±SD of measurements taken in 6 animals per dosage cohort. *p<0.05 compared to corresponding values of OV antigen-challenged, drug-free control group.

[2] = system: cAMP and cGMP concentrations in the lung tissue; assay: Ovalbumin-induced asthma in guinea pigs: cAMP and cGMP in lung tissue (radioimmunoassay); format: in vivo, guinea pig; settings: lung tissue 24 hours after OV challenge
Experimental: The effect combinations of vitamin C, astaxanthin, and ginkolide on asthma-associated disease parameters ovalbumin(OA)-induced asthma in guinea pigs was evaluated. Twenty-four hours following OA challenge, animals are sacrificed and numbers of inflammatory cells (eosinophils, neutrophils, macrophages) are measured in bronchoalveolar lavage (BAL) fluid; and cAMP and cGMP concentrations in the lung tissue. The experiments were carried out as follows. Male Hartley guinea pigs (250-350 g) were sensitized by intramuscular injections of 0.35 ml of a 5% (W/V) ovalbumin (OA)/saline solution into each thigh on days 1 and 4. Guinea pigs were ready for asthmatic challenge after 25 days of ovalbumin injection. Asthmatic challenge was carried out with ovalbumin aerosol, and bronchoalveolar lavage (BAL) was done 24 hours later. The numbers of eosinophils, neutrophils, and macrophages in the BAL fluid were counted. Biopsies from lung tissues, cAMP and cGMP were measured using commercially available radioimmunoassay kits (Amersham). Immediately after sampling, lung biopsies were frozen by means of a Wollenberger clamp prechilled in liquid nitrogen. Samples were powdered with a pestle and mortar in liquid nitrogen and trichloro acetic acid (TCA) was added to the powdered frozen samples ([…] of tissue). Samples were further homogenized in the frozen TCA in the braying mortar and then centrifuged at 14,000×g for 10 min at 4° C. The supernatants were extracted 6 times in water-saturated diethylether, evaporated and assayed for cGMP by radioimmunoassay using liquid scintillation counter (Packard, Tri-Carb 2100TR). The dose-responsive effect of AX, EGb761, and vitamin C administered independently for suppression of asthma-associated parameters in allergen-induced, asthmatic guinea pigs was determined. Ibuprophen (IB) was used as the positive control. Concentration of inflammatory cells in bronchoalveolar lavage (BAL) fluid and levels of cAMP and cGMP in lung tissue were measured in guinea pigs 24 hours following challenge with OV. […] The dose-responsive effect of AX, EGb761, and vitamin C administered in combination for suppression of asthma-associated parameters in allergen-induced, asthmatic guinea pigs was determined. The combination of these three components was given each day for each guinea pig as a “cocktail”. Concentration of inflammatory cells in bronchoalveolar lavage (BAL) fluid and levels of cAMP and cGMP in lung tissue were measured in guinea pigs 24 hours following challenge with OV.

CC1=C(/C=C/C(C)=C/C=C/C(C)=C/C=C/C=C(C)/C=C/C=C(C)/C=C/C2=C(C)C(=O)[C@@H](O)CC2(C)C)C(C)(C)C[C@H](O)C1=O [astaxanthin, 3,3′-dihydroxy-4,4′-diketo-B-carotene]
% CD3+CD54+ cells (PMA/I-treated human PBMC; Subject A, first column, 10^-6 M): 4.2%
% CD3+CD54+ cells (PMA/I-treated human PBMC; Subject A, first column, 10^-7 M): 8.4%
% CD3+CD54+ cells (PMA/I-treated human PBMC; Subject A, second column, 10^-6 M): 3.3%
% CD3+CD54+ cells (PMA/I-treated human PBMC; Subject A, second column, 10^-7 M): 10.6%
% CD3+CD54+ cells (PMA/I-treated human PBMC; Subject B, first column, 10^-6 M): 6.3%
% CD3+CD54+ cells (PMA/I-treated human PBMC; Subject B, first column, 10^-7 M): 16.2%
% CD3+CD54+ cells (PMA/I-treated human PBMC; Subject B, second column, 10^-6 M): 10.3%
% CD3+CD54+ cells (PMA/I-treated human PBMC; Subject B, second column, 10^-7 M): 21.9%
Eosinophils ([1]; 5 mg/kg): 5.0 ± 0.7 cell × 10^6/animal
Macrophages ([1]; 5 mg/kg): 9.6 ± 1.0 cell × 10^6/animal
Neutrophils ([1]; 5 mg/kg): 5.4 ± 0.8 cell × 10^5/animal
Eosinophils ([1]; 10 mg/kg): 4.6 ± 0.6 cell × 10^6/animal
Macrophages ([1]; 10 mg/kg): 8.0 ± 0.8 cell × 10^6/animal
Neutrophils ([1]; 10 mg/kg): 5.1 ± 0.6 cell × 10^5/animal
Eosinophils ([1]; 30 mg/kg): 3.1 ± 0.5* cell × 10^6/animal
Macrophages ([1]; 30 mg/kg): 3.7 ± 0.7* cell × 10^6/animal
Neutrophils ([1]; 30 mg/kg): 3.3 ± 0.8* cell × 10^5/animal
Eosinophils ([1]; 100 mg/kg): 2.4 ± 0.6* cell × 10^6/animal
Macrophages ([1]; 100 mg/kg): 2.70 ± 0.7* cell × 10^6/animal
Neutrophils ([1]; 100 mg/kg): 2.4 ± 0.5* cell × 10^5/animal
Eosinophils ([1]; 200 mg/kg): 2.3 ± 0.5* cell × 10^6/animal
Macrophages ([1]; 200 mg/kg): 2.6 ± 0.5* cell × 10^6/animal
Neutrophils ([1]; 200 mg/kg): 2.0 ± 0.4* cell × 10^5/animal
protection against OV-induced asthma ([1]; components used separately: 10 mg/kg AX, 200 mg/kg vit C, 10 mg/kg GB, listed as AX): failed to protect; also recorded: failed to reduce the severity of asthma
cAMP ([2]; 5 mg/kg): 6.9 ± 0.5 pmol (mg protein)^−1
cGMP ([2]; 5 mg/kg): 1.2 ± 0.1 pmol (mg protein)^−1
cAMP ([2]; 10 mg/kg): 8.1 ± 0.8 pmol (mg protein)^−1
cGMP ([2]; 10 mg/kg): 1.4 ± 0.1 pmol (mg protein)^−1
cAMP ([2]; 30 mg/kg): 9.6 ± 0.8 pmol (mg protein)^−1
cGMP ([2]; 30 mg/kg): 1.8 ± 0.3 pmol (mg protein)^−1
cAMP ([2]; 100 mg/kg): 12.6 ± 0.8 pmol (mg protein)^−1
cGMP ([2]; 100 mg/kg): 2.8 ± 0.3 pmol (mg protein)^−1
cAMP ([2]; 200 mg/kg): 12.1 ± 0.5 pmol (mg protein)^−1
cGMP ([2]; 200 mg/kg): 2.7 ± 0.2 pmol (mg protein)^−1

Reference: patent publication US20060127505A1, “Anti-inflammatory formulations” (priority 2002, published 2006)
